In BindingDB's records for doi:10.1021/jm00102a020 (Merck Research Laboratories, 1993):

Target: Integrin alpha-IIb/beta-3 (Homo sapiens, UniProt P08514+P05106)
Test: ChEBML_90196
From the text: In vitro inhibition of ADP-mediated human gel filtered platelet aggregation.

Chain of Integrin alpha-IIb/beta-3 (P05106 27-788 limits assumed): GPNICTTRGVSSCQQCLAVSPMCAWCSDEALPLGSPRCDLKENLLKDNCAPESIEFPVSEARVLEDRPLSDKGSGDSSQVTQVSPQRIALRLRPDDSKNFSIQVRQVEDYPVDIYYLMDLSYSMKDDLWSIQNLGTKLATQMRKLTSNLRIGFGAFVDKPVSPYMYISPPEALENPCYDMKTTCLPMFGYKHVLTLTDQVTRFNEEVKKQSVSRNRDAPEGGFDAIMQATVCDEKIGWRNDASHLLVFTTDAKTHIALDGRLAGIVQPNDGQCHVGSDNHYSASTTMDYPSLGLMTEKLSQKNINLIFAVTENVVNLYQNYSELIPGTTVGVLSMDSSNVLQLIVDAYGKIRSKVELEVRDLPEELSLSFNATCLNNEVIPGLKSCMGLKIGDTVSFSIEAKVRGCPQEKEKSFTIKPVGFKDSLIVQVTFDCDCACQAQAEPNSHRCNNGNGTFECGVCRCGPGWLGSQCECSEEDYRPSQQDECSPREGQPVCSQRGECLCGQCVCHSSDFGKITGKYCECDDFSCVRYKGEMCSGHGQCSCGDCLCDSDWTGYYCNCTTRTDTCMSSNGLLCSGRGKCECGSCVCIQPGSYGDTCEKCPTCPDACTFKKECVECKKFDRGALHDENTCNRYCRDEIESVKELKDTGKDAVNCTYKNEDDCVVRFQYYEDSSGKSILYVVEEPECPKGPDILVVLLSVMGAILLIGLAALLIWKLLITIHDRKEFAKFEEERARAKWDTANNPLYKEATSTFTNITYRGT
Chain of Integrin alpha-IIb/beta-3 (P08514 32-887 limits assumed): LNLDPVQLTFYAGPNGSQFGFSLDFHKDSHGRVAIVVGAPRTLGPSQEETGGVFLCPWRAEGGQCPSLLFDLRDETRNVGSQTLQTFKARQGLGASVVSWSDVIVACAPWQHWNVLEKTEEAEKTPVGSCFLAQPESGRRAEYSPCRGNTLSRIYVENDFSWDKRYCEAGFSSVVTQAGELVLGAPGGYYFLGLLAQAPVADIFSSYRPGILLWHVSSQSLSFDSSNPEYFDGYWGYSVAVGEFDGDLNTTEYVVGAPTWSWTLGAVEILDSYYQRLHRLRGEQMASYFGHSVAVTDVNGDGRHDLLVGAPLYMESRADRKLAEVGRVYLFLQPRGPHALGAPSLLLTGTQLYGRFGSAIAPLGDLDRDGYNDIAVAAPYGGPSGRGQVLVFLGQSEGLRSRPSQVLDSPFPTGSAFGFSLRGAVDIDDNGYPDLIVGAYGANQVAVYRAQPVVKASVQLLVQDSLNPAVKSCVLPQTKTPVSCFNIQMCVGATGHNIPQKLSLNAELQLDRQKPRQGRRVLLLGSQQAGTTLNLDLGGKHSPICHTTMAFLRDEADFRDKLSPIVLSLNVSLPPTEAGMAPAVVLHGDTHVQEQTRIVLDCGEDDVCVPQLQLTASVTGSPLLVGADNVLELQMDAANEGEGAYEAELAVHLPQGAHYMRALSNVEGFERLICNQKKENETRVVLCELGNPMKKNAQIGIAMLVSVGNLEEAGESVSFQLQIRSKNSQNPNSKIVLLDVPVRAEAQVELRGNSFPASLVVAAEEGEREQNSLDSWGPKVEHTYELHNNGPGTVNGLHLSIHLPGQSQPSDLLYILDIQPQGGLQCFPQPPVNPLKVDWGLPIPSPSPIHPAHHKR
Chain of Integrin alpha-IIb/beta-3 (P08514 891-1039 limits assumed): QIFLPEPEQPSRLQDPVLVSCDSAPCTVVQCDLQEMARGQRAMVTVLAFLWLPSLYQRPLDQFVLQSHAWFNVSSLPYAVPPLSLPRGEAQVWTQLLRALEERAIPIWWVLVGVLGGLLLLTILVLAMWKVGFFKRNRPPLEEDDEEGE

IC50 [µM] | Compound
2 | NCCCCCCOc1ccc(C[C@H](NS(=O)(=O)Cc2ccccc2)C(=O)O)cc1
> 1000 | O=C(N[C@@H](Cc1ccc(OCCCc2ccccc2)cc1)C(=O)O)OCc1ccccc1
> 100 | NCCCCCCOc1ccc(CCC(=O)O)cc1
40 | NCCCCCCCCOc1ccc(C[C@H](NC(=O)OCc2ccccc2)C(=O)O)cc1 [3-[4-(8-Amino-octyloxy)-phenyl]-2-benzyloxycarbonylamino-propionic acid]
22 | CC(C)(C)NCCCOc1ccc(C[C@H](NC(=O)OCc2ccccc2)C(=O)O)cc1 [(S)-2-Benzyloxycarbonylamino-3-[4-(3-tert-butylamino-propoxy)-phenyl]-propionic acid]
27 | CC(C)(C)NCC(O)COc1ccc(C[C@H](NC(=O)OCc2ccccc2)C(=O)O)cc1 (some centres not stated)
3.8 | CCCCCC(=O)N[C@@H](Cc1ccc(OCCCCCCN)cc1)C(=O)O
